What was measured:
B16-F10 cells [1] = experiment: Western blot, IRF1, STAT1 and phospho-Tyr701-STAT1 at 2 h post IFNγ; type: cell-based, murine; details: Stub1-null B16-F10, 2 h
Experimental: Cells were dissociated from the wells with 0.25% trypsin (Gibco, 25200056). After rinsing with 0.5 ml PBS, the cell pellets were lysed with chilled cell lysis buffer (Cell Signaling Technology, #9803) supplemented with Halt protease inhibitor cocktail (Thermo Scientific, #78430) and phosphatase inhibitor (Sigma-Aldrich, # 4906837001) for 30 min with intermittent vortexing. The lysate was transferred into PCR-strip tubes and sonicated in a chilled water bath sonicator (QSonica). Lysates were clarified by centrifugation at 15,000 rpm at 4 °C for 15 min. Protein concentration was determined using BCA protein assay kit (Pierce, #23225). The lysates were mixed with LDS sample buffer (Life Technologies, NP0008) and sample reducing agent (Life Technologies, NP0009), followed by heating at 70 °C for 10 min to fully denature the protein. […] Membrane blots were pre-stained with total protein stain (LI-COR, # 926-11016) and imaged with Odyssey CLx. […] The blots were finally probed, for overnight at 4 °C, with the appropriate primary antibodies diluted in Intercept (TBS) blocking buffer supplemented with 0.1% (v/v) Tween-20, followed by the secondary antibodies (IRDye 800CW donkey anti-rabbit or anti-mouse IgG, LI-COR) for 1 h at room temperature. Fluorescent signals were imaged and quantified using Odyssey CLx and Image Studio v5.0. […]

B16-F10 cells [2] = experiment: Gene expression profiling with NanoString PanCancer IO 360; type: cell-based, murine; details: Stub1-null B16-F10, 0.03 ng ml^−1 IFNγ, 6 h or 24 h
Experimental: After overnight incubation, the culture media were replaced with fresh media (DMEM + 10% FBS) supplemented with 0.03 ng ml^−1 of recombinant mouse IFNγ (R&D Systems, #485-MI-100). Total RNA from untreated cells (24 h) and IFNγ-treated cells (6 or 24 h) were extracted with RNeasy plus mini kit (Qiagen, 74134) according to manufacturer’s protocol. An input of 150 ng RNA from each sample was mixed with the NanoString reporter and capture probes (nCounter Mouse PanCancer IO 360, # XT-CSPS-MIO360-12), and incubated at 65 °C for 20 h. The hybridized samples were processed on the nCounter prep station, and the resulting cartridge was scanned by the nCounter digital analyzer using 555 fields of view. Raw count data were evaluated for quality control and normalized with 19 housekeeping genes using nSolver 4.0 software (Supplementary Table S3). Tlk2 was excluded from the housekeeping gene due to weak expression (RNA counts < 80). […] Weakly expressed genes, where the normalized RNA counts were consistently less than 80 in all samples, were excluded from fold change analysis, resulting in an evaluable set of 493 out of 750 genes (Supplementary Fig. 4a). As an overview, all 750 targeted genes were included in the scatter plot analysis (Supplementary Fig. 4b–d).

IFNγ
Early induction of IRF1 and phospho-Tyr701-STAT1 (B16-F10 cells [1]): Loss of Stub1 lowers the stimulating threshold of IFNγ
Induction of interferon-stimulated genes (B16-F10 cells [2]): enhanced response to IFNγ treatment

From paper PMC9388626, “STUB1 is an intracellular checkpoint for interferon gamma sensing” (Scientific Reports, 2022)
